# Source: US20090318342A1, “Compounds” (IMPERIAL INNOVATIONS LIMITED, priority 2005, published 2009)
# Key:
# [1] = target: soluble form of TACE (TACE R651) (Homo sapiens, UniProt P78536); experiment: Enzyme inhibition kinetic study, TACE; format: biochemical; conditions: 0.5 nM TACE, pH 9.0, 1 mM NaCl; for Inhibition of TACE activity (in words): FIG. 2B
# Procedure: FIG. 2. Inhibition of MMP and TACE by N-TIMP-3 and its mutants. A. Inhibition of MMP-14(CD) by wild-type and mutated N-TIMP-3. Open circles, wild-type N-TIMP-3; closed circles, T2G; and open squares, -1A. B. Comparison of the inhibition of TACE by wild-type N-TIMP-3, N-TIMP-1 and TAPI-2. The inhibitors were incubated with 0.5 nM TACE for 3 hr at room temperature, and the residual enzyme activity was measured with 10 μM Substrate III (R&D Systems). […] Open circles, N-TIMP-3; closed circles, TAPI-2; and open squares, N-TIMP-1. C. Inhibition of TACE (0.5 nM) by wild-type and mutated N-TIMP-3. Open circles, wild-type inhibitor; closed circles, T2G; and open squares, -1A.
# Enzyme inhibition kinetic studies—Inhibition kinetic studies for MMPs and TACE were carried out as described previously (19, 27) with modifications. Purified N-TIMP-3 and mutants were dialyzed against 20 mM Tris-HCl (pH 7.0), 50 mM NaCl containing 20% glycerol, centrifuged at 14,000 rpm for 10 min to remove any precipitate, and protein concentration was re-measured before conducting inhibition assays. Since NaCl inhibits the activity of the TACE ectodomain in vitro (28), we adjusted the final concentration of NaCl to 1 mM in all assays with TACE. Equal volumes (10% of total assay volume) of diluted solutions of N-TIMP-3 and mutants were added to TACE assays, resulting in a final pH of 8.8.
# where v is the experimentally determined reaction velocity, v0 is the uninhibited activity, E is enzyme concentration, I is inhibitor concentration, K is the apparent inhibition constant (Ki^(app)) and h is the Hill coefficient.
# The inhibitory activities of the mutants were also compared with that of wild-type N-TIMP-3 against a soluble form of TACE in which the transmembrane and C-terminal cytoplasmic domains are deleted (TACE R651; (28)). […] The inhibition curve of TACE by wild-type N-TIMP-3 is sigmoid, in striking contrast with the inhibition by TAPI-2 and with the inhibition of MMPs by N-TIMP-3 and N-TIMP-1 (FIGS. 2A, 2B; (31)). Sigmoid inhibition curves were also obtained for TACE with the T2G and -1A mutants of N-TIMP-3 (FIG. 2C).
# THP-1 cells = experiment: Inhibition of TNF-α shedding from THP-1 cells (ELISA); format: cell-based, human; conditions: 100 ng/ml PMA, 6 h, 50 to 500 nM
# Procedure: FIG. 3. Effects of mutations in N-TIMP-3 on inhibition of cellular shedding of TNF-α. THP-1 cells (2.5×10^6/ml) growing in serum-free RPMI-1640 medium were stimulated with 100 ng/ml PMA for 20 min before adding various concentrations of N-TIMP-3 (wild-type and mutants). Cells were allowed to grow for another 6 hr and conditioned media were collected for the ELISA assays.
# Inhibition of TNF-α shedding from THP-1 cells—All TIMP solutions were dialyzed against 20 mM Tris-HCl (pH 7.0), 150 mM NaCl and 20% glycerol before use. Human monocyte THP-1 cells cultured in RPMI-1640 medium supplemented with 5% fetal calf serum were harvested, extensively washed and reseeded into serum-free medium at 2.5×10^6 cells/ml. […] The amount of soluble TNF-α released into the medium was measured using sandwich enzyme-linked immunosorbent assay, as described by Engelberts et al. (30) with modifications. The released TNF-α was absorbed to microtiter plates coated with mouse monoclonal anti-human TNF-α antibody BD551220 (1:200 dilution), and the bound TNF-α was detected using biotinylated mouse monoclonal anti-human TNF-α: antibody BD554511 (1:500 dilution) and streptavidin conjugated with horse radish peroxidase, and 3,3′,5,5′-tetramethylbenzidine as peroxidase substrate (KPL, Guildford, UK). The plates were read at 450 nm with an ELX808 plate reader (BIO-TEK Instruments Inc). […]
# [2] = test system: bovine nasal cartilage explants; experiment: IL-1α-stimulated bovine nasal cartilage explants, GAG release; format: cell-based; conditions: 3 days
# Procedure: (§1) GAG released into the conditioned media is measured in duplicate using a modification of the dimethylmethylene blue (DMMB) assay as described in Farndale et al.. Shark chondroitin sulfate (0-2.62 μg) is used as standard. The % of total GAG released into the medium is calculated as follows: % of total GAG released=(total GAG in the medium)/(total GAG in the medium+total GAG remaining in the cartilage).
# Bovine nasal cartilage explants were stimulated with IL-1α in the presence or absence of N-TIMP-1, TIMP-2, or N-TIMP-3 for 3 days.
# [3] = test system: porcine articular cartilage; experiment: Retinoic acid-stimulated porcine articular cartilage, GAG release; format: cell-based
# Procedure: Porcine articular cartilage from the metacarpophalangeal joints of 3-9 month old pigs is dissected into small shavings approximately 3 mm long and 2-3 mm wide. After dissection, the cartilage is allowed to rest for 24 h at 37° C. under 5% CO2 in DMEM containing penicillin-streptomycin, amphotericin B, and 5% fetal calf serum. The medium is then replaced with fresh media and the cartilage is rested for a further 24-48 h. Each cartilage piece is then placed in one well of a round bottom 96-well plate with 200 μl of serum-free DMEM with or without 10-100 ng/ml IL-1α or 1 μM retinoic acid and various concentrations of each TIMP-3 mutant. After 3 days, all of the conditioned media are harvested and stored at −20° C. until use.
# as §1
# [4] = test system: aggrecanase activity in IL-1α- and retinoic acid-stimulated cartilage; experiment: Aggrecanase-generated aggrecan fragments in cartilage conditioned media, Western analysis; format: cell-based; conditions: 1 μM
# Source text: Aggrecan fragments released into the conditioned medium are deglycosylated by digestion with chondroitinase ABC and keratanase and the samples are subjected to SDS/PAGE and Western blotting analysis as described by Little et al.. The primary antibodies used to detect aggrecanase-generated and MMP-generated aggrecan fragments are BC-3 and BC-14, respectively. Antigen-antibody complexes are detected by anti-mouse AP-linked donkey antibody and the AP substrate.
# Conditioned media from the above experiments were analyzed by monoclonal antibodies that recognize either the aggrecanase-generated aggrecan neoepitope ARGSV or the MMP-generated aggrecan neoepitope FFGVG. In concordance with GAG release, there was an increase in the amount of aggrecanase-generated aggrecan fragments released upon treatment with either stimulus, but no MMP-generated fragments were detected.
# [5] = test system: porcine articular cartilage; experiment: IL-1α-stimulated porcine articular cartilage degradation, GAG release (DMMB); format: cell-based; conditions: IL-1α 10 ng/ml, 3 days
# Procedure: FIG. 7. Inhibition of IL-1a stimulated porcine articular cartilage degradation by N-terminal mutants of N-TIMP-3. Porcine articular cartilage pieces were cultured for three days. Cartilage was stimulated with IL-1α (10 ng/ml) with TIMPs at the concentrations indicated. Glycosaminoglycan (GAG) release in the media was measured by dimethyl methylene blue (DMMB).
# Porcine articular cartilage from the metacarpophalangeal joints of 3-9 month old pigs is dissected into small shavings approximately 3 mm long and 2-3 mm wide. After dissection, the cartilage is allowed to rest for 24 h at 37° C. under 5% CO2 in DMEM containing penicillin-streptomycin, amphotericin B, and 5% fetal calf serum. The medium is then replaced with fresh media and the cartilage is rested for a further 24-48 h. […]
# as §1, with “Shark chondroitin sulfate (0-2.62 μg) is used as standard.” left out
# Porcine articular cartilage pieces were cultured for 3 days. […] Glycosaminoglycan (GAG) release in the media was measured by dimethyl methylene blue (DMMB).
# Sequence of soluble form of TACE (TACE R651) (P78536 215-651): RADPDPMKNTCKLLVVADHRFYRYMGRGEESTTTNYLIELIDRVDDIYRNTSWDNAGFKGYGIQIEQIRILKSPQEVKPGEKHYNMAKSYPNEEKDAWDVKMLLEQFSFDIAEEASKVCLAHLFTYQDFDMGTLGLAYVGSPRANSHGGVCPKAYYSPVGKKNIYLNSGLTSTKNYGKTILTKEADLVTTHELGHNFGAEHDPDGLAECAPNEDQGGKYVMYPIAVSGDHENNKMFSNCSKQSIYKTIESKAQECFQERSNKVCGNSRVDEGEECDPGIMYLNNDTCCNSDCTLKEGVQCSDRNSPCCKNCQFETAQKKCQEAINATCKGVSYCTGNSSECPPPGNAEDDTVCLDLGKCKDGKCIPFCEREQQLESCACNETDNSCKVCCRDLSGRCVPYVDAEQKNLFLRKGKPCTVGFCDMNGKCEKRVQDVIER
Inhibition of TACE activity (in words) [1],"h (Hill coefficient) for TACE inhibition ([1]; Table II, fit with equation 3)","Ki ([1]; Table II, fit with equation 3, read-out: Ki(app) TACE)",Compound,Inhibition of PMA-stimulated release of TNF-α (THP-1 cells),Inhibition of IL-1α-stimulated GAG release [2],Inhibition of retinoic acid-stimulated GAG release [3],Release of aggrecanase-generated aggrecan fragments [4],Inhibition of IL-1α stimulated cartilage degradation (GAG release) [5]
effectively inhibited,1,4.28 ± 0.001 nM,"CC(C)CC(CC(=O)NO)C(=O)NC(C(=O)NC(C)C(=O)NCCN)C(C)(C)C (stereo not drawn) [TAPI-2, HONHCOCH2CH(CH2CH(CH3)2)—CO-t-Butyl-Gly-Ala-NHCH2CH2NH2, reference compound]",,,,,
minimal inhibitory activity,,,"N-TIMP-1: N-terminal inhibitory domain of TIMP-1, expressed in E. coli and folded in vitro [reference compound]",no effect,not effective even at the concentration of 1 μM,did not inhibit,not effective,
,,,TIMP-1: tissue inhibitor of metalloproteinases-1 [reference compound],,,,,did not
